In US20200368315A1, “ANTIMICROBIAL PEPTIDES AND ADMIXTURES THEREOF SHOWING ANTIMICROBIAL ACTIVITY AGAINST GRAM-NEGATIVE PATHOGENS” (priority 2017, published 2020):
≈ marks a conversion by molar mass, not a printed value. Like-named read-outs stand apart in the source and are kept apart here.

How the values were obtained:
E. aerogenes LMG 02094 = assay: microbe, parasite or virus in culture; type: cell-based, Enterobacter aerogenes; conditions: for MIC: Klebsiella aerogenes
How it was run: (§1)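 Broth microdilution MIC in duplicate, polypropylene plates, Mueller Hinton Broth, final inoculum 5*10^5 CFU/mL, 2-fold serial compound dilutions, 37° C. MIC taken as lowest concentration inhibiting visible growth; inoculum checked by plating a dilution of the growth control.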

K. pneumoniae LMG20218 = assay: microbe, parasite or virus in culture; type: cell-based, Klebsiella pneumoniae; conditions: for MIC: Klebsiella pneumoniae
How it was run: as §1

A. baumannii LMG01041 = assay: microbe, parasite or virus in culture; type: cell-based, Acinetobacter baumannii; conditions: for MIC: Acinetobacter baumannii
How it was run: as §1

P. aeruginosa LMG 6395 = assay: microbe, parasite or virus in culture; type: cell-based, Pseudomonas aeruginosa; conditions: for MIC: Pseudomonas aeruginosa
How it was run: as §1

[1] = test system: Escherichia coli B1927, clinical isolate; assay: microbe, parasite or virus in culture; conditions: for MIC: Escherichia coli
Procedure: (§2) Testing was performed according to CLSI (Clinical Laboratory Standards Institute) guidelines. Read out of the study was determination of MIC—minimal inhibitory concentration expressed in μg/mL.
(§3) Out of these PBS solutions, 76.8 μL was transferred to 1423.2 μL of MH media in deep well for testing compound alone. […] Out of these working solutions 100 μL were transferred to wells in the third column of 96-well assay plates. Assay plates were previously filled with 50 μL of MH media in all wells except for the wells in the third column.
(§4) Microorganisms used were all revived from skim milk storage at −70° C. by plating them on MH agar plates. The following day a single colony of each microorganism was again streaked on fresh agar plates. The next day, using direct colony suspension method, broth solutions that achieve turbidity equivalent to 0.5 McFarland standard for each microorganism were prepared. […] Out of these suspensions, actual inoculums were prepared by diluting them 100× with MH media giving final microorganism count of 2-8×10^5 CFU/mL. For each strain of microorganisms, 20 mL of these inoculum solutions were prepared. From the second to the twelfth column of 96-well plates, 50 μL of these solutions were transferred per well. To the first column, 50 μL per well of pure growth media was added. In this manner the first column was used as sterility control of media used, the second column was used as control of microorganism's growth and the rest of the plate was used for MIC determination. All plates were incubated for 16-24 h at 37° C.
(§5) MIC value was determined by visual inspection of bacterial growth within 96-well plates. The first column in which there was no visible growth of bacteria was determined as MIC value for peptide or combination tested in that particular row.

[2] = test system: Escherichia coli ATCC BAA-2452; assay: microbe, parasite or virus in culture; conditions: for MIC: Escherichia coli
Procedure: as §2, §3, §4, §5

[3] = test system: Acinetobacter baumannii B2026, clinical isolate; assay: microbe, parasite or virus in culture; conditions: for MIC: Acinetobacter baumannii
Procedure: as §2, §3, §4, §5

[4] = test system: Klebsiella pneumoniae B1945, clinical isolate; assay: microbe, parasite or virus in culture; conditions: for MIC: Klebsiella pneumoniae
Procedure: as §2, §3, §4, §5

[5] = test system: Klebsiella pneumoniae ATCC BAA-2524; assay: microbe, parasite or virus in culture; conditions: for MIC: Klebsiella pneumoniae
Procedure: as §2, §3, §4, §5

[6] = test system: Pseudomonas aeruginosa B1954, clinical isolate; assay: microbe, parasite or virus in culture; conditions: for MIC: Pseudomonas aeruginosa
Procedure: as §2, §3, §4, §5

[7] = test system: Acinetobacter baumannii ATCC BAA-1605; assay: microbe, parasite or virus in culture; conditions: for MIC: Acinetobacter baumannii
Procedure: as §2, §3, §4, §5

[8] = test system: Pseudomonas aeruginosa ATCC BAA-2108; assay: microbe, parasite or virus in culture; conditions: for MIC: Pseudomonas aeruginosa
Procedure: as §2, §3, §4, §5

E. coli LMG15862 = assay: microbe, parasite or virus in culture; type: cell-based, Escherichia coli; conditions: for MIC: Escherichia coli
How it was run: as §1

HEK293 cells = assay: Cell viability (ATP levels, CellTiter-Glo); conditions: HEK293 cells
Procedure: ATP levels were measured by adding 50 μL of CellTiter-Glo reagent to each well and after 5 minutes of incubation luminescence was measured with SpectraMax i3.
96-well plates were seeded with HEK293 cells at concentration of 30,000 cells per well in 100 μL of DMEM growth media supplemented with 1% NEAA and 10% FBS. Border wells were filled with 100 μL of sterile PBS. The next day compounds were added to cells. Compounds were first 2× diluted in 96-well V-bottom plate in PBS. After that compounds were mixed with media in 96-deep-well plate for final concentrations. Growth media from 3 plates was aspirated and replaced with 100 μL of prepared compounds. Compounds were tested in duplicate. ATP levels were measured by adding 50 μL of CellTiter-Glo reagent to each well and after 5 minutes of incubation luminescence was measured with SpectraMax i3. […] The potential effects were then calculated and presented as IC50 values (μg/mL).

Gram-negative pathogens = type: cell-based; conditions: alone; over the 5 Gram-negative pathogens
Procedure: Escherichia coli, Klebsiella pneumoniae, Pseudomonas aeruginosa, Acinetobacter baumannii, Enterobacter aerogenes were grown in Luria-Bertani (LB) broth shaken (200 rpm) or on LB agar at 37° C. […] MICs tests were performed in duplicate by a liquid growth inhibition microdilution assays in sterilized polypropylene microtiter plates according to Wiegand and […] [27]. […] The suspension was diluted in a ratio of 1:100 using Mueller Hinton Broth (MHB) and the final inoculum is 5*10^5 CFU/mL. […] The antimicrobials were diluted serially by 1/2 one by one and 50 uL diluted bacterial suspension were added to each well to make the final volume to be 100 uL. Growth control was accomplished by remove 10 uL from well 11 and dilute 1000 times to plate 1/10 suspension on the solid medium. […] The number of colonies on the control agar plate should be around 50 to ensure the concentration of the inoculum and the effectiveness of the experiment. The lowest concentration of the antimicrobials that inhibits visible growth of the indicator is identified as MIC.

CC[C@@H](C)[C@@H](NC(=O)[C@@H](CCCNC(=N)N)NC(=O)[C@@H](CCCNC(=N)N)NC(=O)[C@@H](Cc1ccccc1)NC(=O)[C@@H](CC(C)C)NC(=O)[C@@H](CCCNC(=N)N)NC(=O)[C@H](N)CCCNC(=N)N)C(=O)N[C@H](CC(C)C)C(=O)N[C@H](CCCNC(=N)N)C(=O)N[C@H](Cc1c[nH]c2ccccc12)C(=O)N[C@H](CC(C)C)C(N)=O [GNP-D6]
MIC value (E. aerogenes LMG 02094; alone, E. aerogenes LMG 02094): 2 µM (≈ 3.17 µg/mL)
MIC value (K. pneumoniae LMG20218; alone, K. pneumoniae LMG20218): 2 µM (≈ 3.17 µg/mL)
MIC value (A. baumannii LMG01041; alone, A. baumannii LMG01041): 2 µM (≈ 3.17 µg/mL)
MIC value (P. aeruginosa LMG 6395; alone, P. aeruginosa LMG 6395): 2 µM (≈ 3.17 µg/mL)
MIC value ([1]; alone, MDR E. coli B1927): 1.27 µM
MIC value ([2]; alone, MDR E. coli ATCC BAA-2452): 1.27 µM
MIC value ([3]; alone, A. baumannii B2026, colistin resistant): 2.53 µM
MIC value ([4]; alone, MDR K. pneumoniae B1945): 5.05 µM
MIC value ([5]; alone, MDR K. pneumoniae ATCC BAA-2524): 2.53 µM
MIC value ([6]; alone, MDR P. aeruginosa B1954): 2.53 µM
MIC value ([7]; alone, MDR A. baumannii ATCC BAA-1605): 5.05 µM
MIC value ([8]; alone, MDR P. aeruginosa ATCC BAA-2108): 5.05 µM
MIC value (E. coli LMG15862; alone, E. coli LMG15862): 2 µM (≈ 3.17 µg/mL)
IC50 (HEK293 cells; read-out: IC50 (cell viability, ATP levels)): 32.9 µM
MIC / concentration needed to inhibit growth (Gram-negative pathogens): 2 µM (≈ 3.17 µg/mL)

CN[C@H](CC(C)C)C(=O)N[C@H]1C(=O)N[C@@H](CC(N)=O)C(=O)N[C@H]2C(=O)N[C@H]3C(=O)N[C@H](C(=O)N[C@H](C(=O)O)c4cc(O)cc(O)c4-c4cc3ccc4O)[C@H](O)c3ccc(c(Cl)c3)Oc3cc2cc(c3O[C@@H]2O[C@H](CO)[C@@H](O)[C@H](O)[C@H]2O[C@H]2C[C@](C)(N)[C@H](O)[C@H](C)O2)Oc2ccc(cc2Cl)[C@H]1O [Vancomycin, reference compound]
MIC (E. aerogenes LMG 02094; LMG02094, read-out: MIC value): 192 µM (≈ 278 µg/mL)
MIC (E. aerogenes LMG 02094; LMG02094, read-out: MIC value of antimicrobial compounds alone): 192 µM (≈ 278 µg/mL)
MIC (K. pneumoniae LMG20218; LMG20218, read-out: MIC value): 128 µM (≈ 186 µg/mL)
MIC (K. pneumoniae LMG20218; LMG20218, read-out: MIC value of antimicrobial compounds alone): 128 µM (≈ 186 µg/mL)
MIC (A. baumannii LMG01041; LMG01041, read-out: MIC value): 32 µM (≈ 46.4 µg/mL)
MIC (A. baumannii LMG01041; LMG01041, read-out: MIC value of antimicrobial compounds alone): 32 µM (≈ 46.4 µg/mL)
MIC (P. aeruginosa LMG 6395; LMG6395, read-out: MIC value): 128 µM (≈ 186 µg/mL)
MIC (P. aeruginosa LMG 6395; LMG6395, read-out: MIC value of antimicrobial compounds alone): 128 µM (≈ 186 µg/mL)
MIC [1]: 128 µg/mL
MIC ([1]; read-out: MIC value): 88.3 µM
MIC ([2]; ATCCBAA2452): > 128 µg/mL
MIC ([2]; ATCCBAA2452, read-out: MIC value): > 88.3 µM
MIC [3]: 32 µg/mL
MIC ([3]; read-out: MIC value): 22.1 µM
MIC [4]: > 128 µg/mL
MIC ([4]; read-out: MIC value): > 88.3 µM
MIC ([5]; ATCCBAA2524): > 128 µg/mL
MIC ([5]; ATCCBAA2524, read-out: MIC value): > 88.3 µM
MIC [6]: 128 µg/mL
MIC ([6]; read-out: MIC value): 88.3 µM
MIC ([7]; ATCCBAA1605): 64 µg/mL
MIC ([7]; ATCCBAA1605, read-out: MIC value): 44.2 µM
MIC ([8]; ATCCBAA2108): > 128 µg/mL
MIC ([8]; ATCCBAA2108, read-out: MIC value): > 88.3 µM
MIC (E. coli LMG15862; LMG15862, read-out: MIC value): 64 µM (≈ 92.8 µg/mL)
MIC (E. coli LMG15862; LMG15862, read-out: MIC value of antimicrobial compounds alone): 64 µM (≈ 92.8 µg/mL)
Effect on ATP levels (HEK293 cells; at concentrations tested): do not affect the ATP levels
MIC / concentration needed to inhibit growth (Gram-negative pathogens): at least 32 μM
